In patent publication US20240189277A1, “OPHTHALMIC FORMULATIONS FOR SUSTAINED NEUROPROTECTION” (priority 2021, published 2024):

Tests used:
primary mouse RGCs = assay: Retinal ganglion cell (RGC) viability assay (CellTiter-Glo); format: cell-based; details: concentrations as high as 10 mg/mL; with 1 μM sunitinib malate; 72 h
Experimental: Mouse RGCs were purified as described ny Welsbie, D. S., et al., Proceedings of the National Academy of Sciences of the United States of America, 2013. 110(10): p. 4045-4050. Purified cells were plated on a poly-D-lysine/laminin coated 384-well culture dish at 4,000 cells per well and cultured in Neurobasal media supplemented with B-27, N-2, L-glutamine, and penicillin/streptomycin. Sunitinib malate (1 μM) was dissolved in dimethyl sulfoxide (DMSO) and added at the same time cells were plated (250 nL into 50 μL of media) to promote RGC survival. Then, either PBS or different volumes of sodium pamoate dissolved in DMSO was added at the concentrations indicated (0.1, 1, 10 mg/mL) to determine whether there was any effect on RGC survival. A PBS control was included for each pamoic acid concentration to account for dilutional effects. After cells were cultured for 72 h at 37° C., viability was measured by CellTiter-Glo (Promega) luminescence.

[1] = test system: corneal neovascularization; details: rats; cited from earlier work
physchem = details: 37 °C, aqueous buffer, thermodynamic from solid
Experimental: To measure solubility, 5 mg of sunitinib malate or SPC complex was placed in microcentrifuge tubes with 1 mL of PBS. The samples were then placed on an orbital shaker (150 rpm) in an incubator at 37° C. After 7 days, samples were collected and centrifuged at 17,000 rcf for 30 min. The supernatant was collected, and concentrations were measured using HPLC (Shimadzu Prominence LC-20). Supernatant samples were mixed 1:10 with acetonitrile containing 0.1% trifluoroacetic acid. Acetonitrile and water was used as a mobile phase at a ratio of 55:45. Samples were eluted isocratically at a flow rate of 1 mL/min through a C18-reversed phase column at 40° C. UV absorbance was monitored at 431 nm.

Structure (SMILES) | effect on primary mouse RGC survival compared to PBS (primary mouse RGCs) | effect on corneal neovascularization after subconjunctival injection [1] | solubility at 7 days (physchem)
O=C(O)c1cc2ccccc2c(Cc2c(O)c(C(=O)O)cc3ccccc23)c1O [Pamoic acid] | no detrimental effect | – | –
CCN(CC)CCNC(=O)c1c(C)[nH]c(/C=C2\C(=O)Nc3ccc(F)cc32)c1C [sunitinib malate, Sunitinib malate] | – | no effect on neovascularization | 525 ± 63 µg/mL
